Literature values, collected in article PMC2929769 (Toxicon : official journal of the International Society on …, 2010).

Test system: RTA
Conditions: read-out: RTA IC50

Q: For `Nc1nc(=O)c(CCCc2ccc(C(=O)O)cc2)c(O)[nH]1` [PBA, 4-[3-(2-amino-1,4-dihydro-6-hydroxy-4-oxo-5-pyrimidinyl)propyl]-benzoic acid], which IC50 is on record?
A: 270 µM
